Results as given in US20020160066A1, “Composition and methods containing an antimicrobial essential oil extracted from Coleus forskohlii” (priority 2001, published 2002).

Tests used:
Staphylococcus aureus = test: Second study, disk clearance zone, Staphylococcus aureus; assay type: cell-based; settings: 30 μg/disk
Excerpt: Determination of the antimicrobial activity of the composition. The sensitivity of Propionbacterium acnes a microorganism associated with acne and other skin infections (Nishijima, et al. (2000)), Staphylococcus aureus a bacterial strain found in infected wounds and skin eruptions including acne (Nishijima, et al. 1994)), Staphylococcus epidermidis a bacterial strain occurring in a variety of opportunistic bacterial skin infections and in acne (Nishijima, S. et al. (2000)) and Streptococcus mutans, a bacterial strain associated with the progression of dental caries (Sanchez-Perez, L. et al. (2001)), Candida albican, and Streptococcus epidermidis; to Coleus forskohlii oil using disk diffusion methodology was determined. One strain each of Propionbacterium acnes (ATCC 11827), Staphylococcus aureus (ATCC 29213), Streptococcus mutans (ATCC 25175), and Staphylococcus epidermidis (ATCC 14990) Candida albicans (ATCC 11006) and Streptococcus epidermidis (ATCC 14990) were obtained from ATCC. Propionbacterium acnes culture were grown in Reinforced Clostridia media under anaerobic conditions at 37° C. for 24 hours. Staphylococcus aureus, Streptococcus mutans and Staphylococcus epidermidis cultures were cultured in Trypticase Soy Broth under aerobic conditions at 37° C. for 24 hours. […] Inhibition zones were measured to the closest one tenth of one millimeter using a caliper. […]

E. coli = test: Second study, disk clearance zone, E. coli; assay type: cell-based; settings: Escherichia coli; 30 μg/disk

SMILES: O=C(N[C@H](CO)[C@H](O)c1ccc([N+](=O)[O-])cc1)C(Cl)Cl [Chloramphenicol]
- zone of inhibition at 30 µg/disc (Staphylococcus aureus): 20 mm
- zone of inhibition at 30 µg/disc (E. coli): 34 mm
